Test system: 855422-203-R-J1-PDC complex spheroid viability
Assay: Anticancer human tumor 855422-203-R-J1-PDC patient-derived bladder carcinoma cell line growth inhibition [POLQ]
Details: for IC50: curve of first compound; for viability, T/C: stronger effect = lower value
Procedure, shortened: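 Patient-derived tumour cells were co-cultured with HUVEC and mesenchymal stem cells as multicellular spheroids at 37 °C. They were treated with POLQ inhibitors (novobiocin, ART-558, RP6685) alone or combined with other agents. Top concentrations were at or near clinical Cmax (otherwise 10 microM; SN-38 at 1 microM), decreasing in half-log steps.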

[1] = second compound 0.0316 µM, first compound 0.0316 µM
[2] = second compound 0.0316 µM, first compound 0.1 µM
[3] = second compound 0.0316 µM, first compound 0.316 µM
[4] = second compound 0.0316 µM, first compound 1 µM
[5] = second compound 0.1 µM, first compound 0.0316 µM
[6] = second compound 0.1 µM, first compound 0.1 µM
[7] = second compound 0.1 µM, first compound 0.316 µM
[8] = second compound 0.1 µM, first compound 1 µM
[9] = second compound 0.316 µM, first compound 0.0316 µM
[10] = second compound 0.316 µM, first compound 0.1 µM
[11] = second compound 0.316 µM, first compound 0.316 µM
[12] = second compound 0.316 µM, first compound 1 µM
[13] = second compound 1 µM, first compound 0.0316 µM
[14] = second compound 1 µM, first compound 0.1 µM
[15] = second compound 1 µM, first compound 0.316 µM
[16] = second compound 1 µM, first compound 1 µM
[17] = second compound 3.16 µM, first compound 0.0316 µM
[18] = second compound 3.16 µM, first compound 0.1 µM
[19] = second compound 3.16 µM, first compound 0.316 µM
[20] = second compound 3.16 µM, first compound 1 µM
[21] = second compound 10 µM, first compound 0.0316 µM
[22] = second compound 10 µM, first compound 0.1 µM
[23] = second compound 10 µM, first compound 0.316 µM
[24] = second compound 10 µM, first compound 1 µM
[25] = second compound 0.0316 µM, first compound 0.00316 µM
[26] = second compound 0.0316 µM, first compound 0.01 µM
[27] = second compound 0.1 µM, first compound 0.00316 µM
[28] = second compound 0.1 µM, first compound 0.01 µM
[29] = second compound 0.316 µM, first compound 0.00316 µM
[30] = second compound 0.316 µM, first compound 0.01 µM
[31] = second compound 1 µM, first compound 0.00316 µM
[32] = second compound 1 µM, first compound 0.01 µM
[33] = second compound 3.16 µM, first compound 0.00316 µM
[34] = second compound 3.16 µM, first compound 0.01 µM
[35] = second compound 10 µM, first compound 0.00316 µM
[36] = second compound 10 µM, first compound 0.01 µM
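Also: spheroids exposed to compounds for seven days before readout.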

Which results are given for `CCCS(=O)(=O)Nc1ccc(F)c(C(=O)c2c[nH]c3ncc(-c4ccc(Cl)cc4)cc23)c1F` + Cc1cccc(N(C)C(=O)C2C(O)CCN2c2nc(C)cc(C(F)(F)F)c2C#N)c1?
IC50 (second compound 0.0316 µM): 6140 nM; IC50 (second compound 0.1 µM): 6180 nM; IC50 (second compound 0.316 µM): 6520 nM; IC50 (second compound 1 µM): 6040 nM; IC50 (second compound 3.16 µM): 6480 nM; IC50 (second compound 10 µM): 6720 nM; viability, T/C [1]: 104%; viability, T/C [2]: 131%; viability, T/C [3]: 99.9%; viability, T/C [4]: 104%; viability, T/C (second compound 0.0316 µM, first compound 3.16 µM): 109%; viability, T/C (second compound 0.0316 µM, first compound 10 µM): 6.85%; viability, T/C [5]: 98%; viability, T/C [6]: 119%; viability, T/C [7]: 99%; viability, T/C [8]: 103%; viability, T/C (second compound 0.1 µM, first compound 3.16 µM): 121%; viability, T/C (second compound 0.1 µM, first compound 10 µM): 8.21%; viability, T/C [9]: 103%; viability, T/C [10]: 125%; viability, T/C [11]: 101%; viability, T/C [12]: 110%; viability, T/C (second compound 0.316 µM, first compound 3.16 µM): 115%; viability, T/C (second compound 0.316 µM, first compound 10 µM): 14.1%; viability, T/C [13]: 97%; viability, T/C [14]: 111%; viability, T/C [15]: 96%; viability, T/C [16]: 107%; viability, T/C (second compound 1 µM, first compound 3.16 µM): 123%; viability, T/C (second compound 1 µM, first compound 10 µM): 5.7%; viability, T/C [17]: 97.8%; viability, T/C [18]: 133%; viability, T/C [19]: 139%; viability, T/C [20]: 127%; viability, T/C (second compound 3.16 µM, first compound 3.16 µM): 128%; viability, T/C (second compound 3.16 µM, first compound 10 µM): 4.79%; viability, T/C [21]: 109%; viability, T/C [22]: 134%; viability, T/C [23]: 139%; viability, T/C [24]: 180%; viability, T/C (second compound 10 µM, first compound 3.16 µM): 142%; viability, T/C (second compound 10 µM, first compound 10 µM): 2.01%

For `CC[C@@]1(O)C(=O)OCc2c1cc1n(c2=O)Cc2cc3c(CN(C)C)c(O)ccc3nc2-1` + Cc1cccc(N(C)C(=O)C2C(O)CCN2c2nc(C)cc(C(F)(F)F)c2C#N)c1, which IC50 (second compound 0.0316 µM) is on record?
Its IC50 is 29.1 nM.

And the IC50 (second compound 0.1 µM)?
Its IC50 is 32.4 nM.

And the IC50 (second compound 0.316 µM)?
The IC50 was 28 nM.

What about the IC50 (second compound 1 µM) of the same compound?
The IC50 was 26.5 nM.

What about the IC50 (second compound 3.16 µM) of the same compound?
Its IC50 is 26.4 nM.

And the IC50 (second compound 10 µM)?
Its IC50 is 23.1 nM.

What about the viability, T/C (second compound 0.0316 µM, first compound 0.000316 µM) of the same compound?
Its viability, T/C is 102%.

And the viability, T/C (second compound 0.0316 µM, first compound 0.001 µM)?
Its viability, T/C is 97.4%.

And the viability, T/C [25]?
The viability, T/C was 99.8%.

And the viability, T/C [26]?
The viability, T/C was 82.5%.

And the viability, T/C [1]?
Its viability, T/C is 47.7%.

And the viability, T/C [2]?
Its viability, T/C is 13.3%.

And the viability, T/C (second compound 0.1 µM, first compound 0.000316 µM)?
Its viability, T/C is 118%.

What about the viability, T/C (second compound 0.1 µM, first compound 0.001 µM) of the same compound?
Its viability, T/C is 104%.

What about the viability, T/C [27] of the same compound?
The viability, T/C was 99%.

And the viability, T/C [28]?
Its viability, T/C is 103%.

And the viability, T/C [5]?
Its viability, T/C is 50.8%.

What about the viability, T/C [6] of the same compound?
The viability, T/C was 13.7%.

What about the viability, T/C (second compound 0.316 µM, first compound 0.000316 µM) of the same compound?
Its viability, T/C is 94.7%.

What about the viability, T/C (second compound 0.316 µM, first compound 0.001 µM) of the same compound?
Its viability, T/C is 105%.

And the viability, T/C [29]?
The viability, T/C was 97.5%.

And the viability, T/C [30]?
The viability, T/C was 99.5%.

What about the viability, T/C [9] of the same compound?
Its viability, T/C is 44.1%.

What about the viability, T/C [10] of the same compound?
Its viability, T/C is 14.1%.

What about the viability, T/C (second compound 1 µM, first compound 0.000316 µM) of the same compound?
Its viability, T/C is 99.7%.

What about the viability, T/C (second compound 1 µM, first compound 0.001 µM) of the same compound?
The viability, T/C was 96.4%.

What about the viability, T/C [31] of the same compound?
Its viability, T/C is 116%.

And the viability, T/C [32]?
Its viability, T/C is 89.4%.

And the viability, T/C [13]?
Its viability, T/C is 43%.

And the viability, T/C [14]?
The viability, T/C was 12.4%.

What about the viability, T/C (second compound 3.16 µM, first compound 0.000316 µM) of the same compound?
Its viability, T/C is 102%.

What about the viability, T/C (second compound 3.16 µM, first compound 0.001 µM) of the same compound?
Its viability, T/C is 100%.

And the viability, T/C [33]?
The viability, T/C was 113%.

And the viability, T/C [34]?
The viability, T/C was 94.9%.

And the viability, T/C [17]?
The viability, T/C was 41.6%.

What about the viability, T/C [18] of the same compound?
Its viability, T/C is 11.9%.

What about the viability, T/C (second compound 10 µM, first compound 0.000316 µM) of the same compound?
The viability, T/C was 97.4%.

What about the viability, T/C (second compound 10 µM, first compound 0.001 µM) of the same compound?
Its viability, T/C is 97.7%.

What about the viability, T/C [35] of the same compound?
The viability, T/C was 107%.

What about the viability, T/C [36] of the same compound?
The viability, T/C was 86.8%.

And the viability, T/C [21]?
Its viability, T/C is 36%.

What about the viability, T/C [22] of the same compound?
The viability, T/C was 11.6%.

Which results are given for `CCc1c2c(nc3ccc(O)cc13)-c1cc3c(c(=O)n1C2)COC(=O)[C@]3(O)CC` + Cc1cccc(N(C)C(=O)C2C(O)CCN2c2nc(C)cc(C(F)(F)F)c2C#N)c1?
IC50 (second compound 0.0316 µM): 3.34 nM; IC50 (second compound 0.1 µM): 3.49 nM; IC50 (second compound 0.316 µM): < 3.16 nM; IC50 (second compound 1 µM): < 3.16 nM; IC50 (second compound 3.16 µM): < 3.16 nM; IC50 (second compound 10 µM): < 3.16 nM; viability, T/C [25]: 52.3%; viability, T/C [26]: 9.87%; viability, T/C [1]: 7.42%; viability, T/C [2]: 5.03%; viability, T/C [3]: 3.07%; viability, T/C [4]: 1.53%; viability, T/C [27]: 53.6%; viability, T/C [28]: 14.6%; viability, T/C [5]: 7.37%; viability, T/C [6]: 4.23%; viability, T/C [7]: 3.04%; viability, T/C [8]: 1.53%; viability, T/C [29]: 46.3%; viability, T/C [30]: 13.7%; viability, T/C [9]: 6.83%; viability, T/C [10]: 5.76%; viability, T/C [11]: 2.86%; viability, T/C [12]: 1.53%; viability, T/C [31]: 44.8%; viability, T/C [32]: 15.2%; viability, T/C [13]: 8.04%; viability, T/C [14]: 5.03%; viability, T/C [15]: 2.97%; viability, T/C [16]: 1.31%; viability, T/C [33]: 40%; viability, T/C [34]: 12.1%; viability, T/C [17]: 6.92%; viability, T/C [18]: 5.22%; viability, T/C [19]: 2.69%; viability, T/C [20]: 1.55%; viability, T/C [35]: 28.5%; viability, T/C [36]: 11.5%; viability, T/C [21]: 7.06%; viability, T/C [22]: 3.56%; viability, T/C [23]: 2.83%; viability, T/C [24]: 2.09%

— PubChem BioAssay AID1963838 (Molecular Pharmacology Branch, DTP, NCI, 2024)
